Several values for one entry are separate records, joined by “and”; a condition that tells them apart may be missing. Equal entries are not always repeated.
Key:
[1] = target: T1, BCL-xL/PROTAC/VHL-ELOC-ELOB (VCB) ternary complex (Homo sapiens, UniProt P40337+Q07817); experiment: AlphaLISA ternary complex formation, cell-free, BCL-xL; type: binding; details: for AlphaLISA signal, BCL-xL/PROTAC/VCB: Fig. 3e raw Alpha reads
T1 construct: pGEX-6P-1-VHL(54-213) (pDL2200) was constructed through Gibson assembly method; made in house; host or cells: bacterial culture (LB broth, IPTG induction)
Description: AlphaLISA assay was used to evaluate the in vitro ternary complex formation between target proteins (BCL-xL or BCL-2), PROTAC and E3 ligase (VCB complex). In each well, 5 nM His-tagged BCL-xL or BCL-2 proteins and 5 nM GST-VCB complex was incubated with varying concentrations of compounds in fourfold serial dilutions, to a final volume of 40 µl in a 96-well PCR plate. After incubation at room temperature for 30 min, 5 µl alpha glutathione-donor beads (Cat. No. 6765300, PerkinElmer) were added to each well (20 µg/ml final concentration) and incubated for another 15 min. Thereafter, 5 µL 6× His-acceptor beads were added to each well (20 µg/ml final concentration) and incubated for an additional 45 min at room temperature. Thereafter, 17 µl of each sample was transferred in adjacent wells of a 384-well proxy plate, and the plate was scanned using the Alpha program on Biotek’s Synergy Neo2 multimode plate reader. The data were expressed as average AlphaLISA signal and plotted against different concentrations of compounds using GraphPad Prism 9 software.

[2] = test system: BCL-xL/PROTAC/VCB ternary complex (HiBit-BCL-xL, HaloTag-VHL); experiment: NanoBRET intracellular ternary complex formation in 293T cells, BCL-xL; type: cell-based, human; details: for nanoBRET ratio (610/450, background-subtracted), Ave, Bcl-xl: Ave of Read2 and Read3; for nanoBRET ratio (610/450, background-subtracted), Ave, Bcl-xl / nanoBRET ratio (610/450, background-subtracted), Read2, Bcl-xl / nanoBRET ratio (610/450, background-subtracted), Read3, Bcl-xl: triplicate wells
Outline: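 293T cells were transfected with HiBit-BCL-xL or HiBit-BCL-2 plus HaloTag-VHL and incubated overnight with or without HaloTag NanoBRET 618 ligand in 4% FBS Opti-MEM. Serially diluted compounds were applied for 6 h at 37 °C. mBRET ratio from donor emission (450/50 nm) and acceptor emission (610 nm longpass) after Nano-Glo substrate.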

[3] = compound 50000 nM, 2 technical replicates

T1 sequence (Q07817 1-212 limits assumed): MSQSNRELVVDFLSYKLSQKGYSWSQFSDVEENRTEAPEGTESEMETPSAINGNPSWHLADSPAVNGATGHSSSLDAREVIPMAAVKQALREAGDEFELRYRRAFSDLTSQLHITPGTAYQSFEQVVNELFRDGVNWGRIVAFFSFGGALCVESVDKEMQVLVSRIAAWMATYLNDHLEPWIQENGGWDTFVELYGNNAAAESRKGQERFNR
T1 sequence (P40337 54-213 limits assumed): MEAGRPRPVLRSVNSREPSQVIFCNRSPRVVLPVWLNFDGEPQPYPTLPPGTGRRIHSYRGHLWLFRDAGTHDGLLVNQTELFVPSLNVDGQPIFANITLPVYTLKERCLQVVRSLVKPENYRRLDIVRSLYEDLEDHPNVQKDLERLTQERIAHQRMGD
T1 sequence (Q15369 17-112 partner limits assumed): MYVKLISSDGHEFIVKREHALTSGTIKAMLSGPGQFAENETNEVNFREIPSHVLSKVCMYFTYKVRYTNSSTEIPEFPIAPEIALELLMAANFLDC
T1 sequence (Q15370 whole entry partner): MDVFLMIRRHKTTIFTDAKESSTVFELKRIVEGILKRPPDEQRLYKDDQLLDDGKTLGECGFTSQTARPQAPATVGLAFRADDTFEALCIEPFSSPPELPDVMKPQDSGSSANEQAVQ

Compound | AlphaLISA signal, BCL-xL/PROTAC/VCB ([1]; compound 0.19 nM) | AlphaLISA signal, BCL-xL/PROTAC/VCB ([1]; compound 3.05 nM) | AlphaLISA signal, BCL-xL/PROTAC/VCB ([1]; compound 12.21 nM) | AlphaLISA signal, BCL-xL/PROTAC/VCB ([1]; compound 48.83 nM) | AlphaLISA signal, BCL-xL/PROTAC/VCB ([1]; compound 195.31 nM) | AlphaLISA signal, BCL-xL/PROTAC/VCB ([1]; compound 781.25 nM) | AlphaLISA signal, BCL-xL/PROTAC/VCB ([1]; compound 3125 nM) | AlphaLISA signal, BCL-xL/PROTAC/VCB ([1]; compound 12500 nM) | AlphaLISA signal, BCL-xL/PROTAC/VCB [1, 3] | nanoBRET ratio (610/450, background-subtracted), Ave, Bcl-xl ([2]; 0.004 uM) | nanoBRET ratio (610/450, background-subtracted), Read2, Bcl-xl ([2]; 0.004 uM) | nanoBRET ratio (610/450, background-subtracted), Read3, Bcl-xl ([2]; 0.004 uM) | nanoBRET ratio (610/450, background-subtracted), Ave, Bcl-xl ([2]; 0.012 uM) | nanoBRET ratio (610/450, background-subtracted), Read2, Bcl-xl ([2]; 0.012 uM) | nanoBRET ratio (610/450, background-subtracted), Read3, Bcl-xl ([2]; 0.012 uM) | nanoBRET ratio (610/450, background-subtracted), Ave, Bcl-xl ([2]; 0.111 uM) | nanoBRET ratio (610/450, background-subtracted), Read2, Bcl-xl ([2]; 0.111 uM) | nanoBRET ratio (610/450, background-subtracted), Read3, Bcl-xl ([2]; 0.111 uM) | nanoBRET ratio (610/450, background-subtracted), Ave, Bcl-xl ([2]; 0.333 uM) | nanoBRET ratio (610/450, background-subtracted), Read2, Bcl-xl ([2]; 0.333 uM) | further results
Cc1ncsc1-c1ccc([C@H](C)NC(=O)[C@@H]2C[C@@H](O)CN2C(=O)[C@@H](NC(=O)CCCCCCC(=O)N2CCN(C[C@@]3(C)CCC(c4ccc(Cl)cc4)=C(CN4CCN(c5ccc(C(=O)NS(=O)(=O)c6ccc(N[C@H](CCN7CCOCC7)CSc7ccccc7)c(S(=O)(=O)C(F)(F)F)c6)cc5)CC4)C3)CC2)C(C)(C)C)cc1 [753a] | 27453 and 33756 | 365306 and 327240 | 971358 and 937064 | 1567841 and 1437893 | 1256006 and 1243530 | 553159 and 551116 | 187859 and 162857 | 42241 and 44787 | 28218 and 24731 | 6.588 and 5.267 and 6.114 | 6.808 and 5.756 and 5.973 | 6.368 and 4.777 and 6.254 | 7.772 and 5.901 and 5.719 | 8.034 and 6.13 and 5.719 | 7.511 and 5.673 and 5.719 | 7.6 and 7.528 and 6.707 | 8.597 and 7.785 and 7.564 | 6.603 and 7.27 and 5.849 | 7.771 and 7.613 and 7.591 | 8.649 and 8.045 and 7.293 | nanoBRET ratio (610/450, background-subtracted), Read3, Bcl-xl ([2]; 0.333 uM): 6.893 and 7.18 and 7.888; nanoBRET ratio (610/450, background-subtracted), Ave, Bcl-xl ([2]; 1 uM): 6.777 and 6.861 and 6.637; nanoBRET ratio (610/450, background-subtracted), Read2, Bcl-xl ([2]; 1 uM): 6.613 and 6.856 and 7.09; nanoBRET ratio (610/450, background-subtracted), Read3, Bcl-xl ([2]; 1 uM): 6.94 and 6.866 and 6.184; nanoBRET ratio (610/450, background-subtracted), Ave, Bcl-xl ([2]; 3 uM): 7.07 and 7.184 and 6.888; nanoBRET ratio (610/450, background-subtracted), Read2, Bcl-xl ([2]; 3 uM): 7.24 and 8.026 and 7.182; nanoBRET ratio (610/450, background-subtracted), Read3, Bcl-xl ([2]; 3 uM): 6.9 and 6.341 and 6.5933
Cc1ncsc1-c1ccc([C@H](C)NC(=O)[C@@H]2C[C@@H](O)CN2C(=O)[C@@H](NC(=O)CCCCCCC(=O)N2CCN(C[C@]3(C)CCC(c4ccc(Cl)cc4)=C(CN4CCN(c5ccc(C(=O)NS(=O)(=O)c6ccc(N[C@H](CCN7CCOCC7)CSc7ccccc7)c(S(=O)(=O)C(F)(F)F)c6)cc5)CC4)C3)CC2)C(C)(C)C)cc1 [753b] | 52786 and 55133 | 554325 and 621989 | 1164205 and 1155712 | 1828094 and 1838568 | 1687174 and 1602581 | 724516 and 720957 | 238805 and 237649 | 37696 and 47526 | 26805 and 26614 | 6.669 and 7.034 and 7.222 | 6.7548 and 7.529 and 7.533 | 6.584 and 6.539 and 6.911 | 7.369 and 7.678 and 8.359 | 7.541 and 7.384 and 8.298 | 7.198 and 7.973 and 8.421 | 9.509 and 8.705 and 10.1696 | 10.2238 and 9.035 and 9.873 | 8.794 and 8.375 and 10.4663 | 10.2723 and 9.168 and 8.741 | 10.5785 and 8.953 and 8.643 | in vitro ternary complex formation with BCL-xL (in words) ([1]; AlphaLISA, cell-free, Fig. 2c, 3e): stronger ternary complexes with BCL-xL/2 than those by 753a and DT2216; AlphaLISA signal, BCL-xL/PROTAC/VCB ([1]; compound 0.76 nM): 140034 and 175918; nanoBRET ratio (610/450, background-subtracted), Read3, Bcl-xl ([2]; 0.333 uM): 9.9661 and 9.383 and 8.84; nanoBRET ratio (610/450, background-subtracted), Ave, Bcl-xl ([2]; 1 uM): 8.944 and 10.7233 and 9.842; nanoBRET ratio (610/450, background-subtracted), Read2, Bcl-xl ([2]; 1 uM): 9.3741 and 12.2305 and 10.3071; nanoBRET ratio (610/450, background-subtracted), Read3, Bcl-xl ([2]; 1 uM): 8.514 and 9.216 and 9.3776; nanoBRET ratio (610/450, background-subtracted), Ave, Bcl-xl ([2]; 3 uM): 8.924 and 8.687 and 9.846; nanoBRET ratio (610/450, background-subtracted), Read2, Bcl-xl ([2]; 3 uM): 9.65 and 9.358 and 10.5304; nanoBRET ratio (610/450, background-subtracted), Read3, Bcl-xl ([2]; 3 uM): 8.197 and 8.015 and 9.162; intracellular ternary complex formation with BCL-xL (in words) ([2]; NanoBRET, 293T cells, 6 h): much higher activity to induce the ternary complex formation with both BCL-xL and BCL-2 relative to 753a

Source: PMC8617031, “Development of a BCL-xL and BCL-2 dual degrader with improved anti-leukemic activity,” (Nature Communications, 2021)
